Assay results: patent publication USRE30548E, “Peptides which effect release of hormones” (The Salk Institute for Biological Studies, priority 1979, dated 1981)
Bridge positions count the residues as written; N and C are the ends. Ends that are not written are not given here.

Tests used:
insulin secretion = experiment: In vivo bioassay: inhibition of insulin release in anesthetized rats (portal vein plasma); parameters: species or system Sprague-Dawley-CD rats; settings: in vivo rat, via external jugular vein; somatostatin = 100
Method: (§1) An investigation of the effect of somatostatin, dihydrosomatostatin, (as controls) and the peptides of the invention to inhibit the release of glucagon and insulin was made as follows:
(§2) In vivo Bioassay: Male Sprague-Dawley-CD rats weighing 180-200 g housed in temperature and humidity controlled quarters with 14h light and 10h dark (light 0700-[…]) were used in all experiments. Animals were fed a standard ration and tap water ad libitum. Experiments were carried out at least 5 days after arrival of rats from the supplier between the hours 1400 to 1600. After ether anesthesia, peptides or saline were administered in a volume of 0.2 ml. via the external jugular vein. Animals remained anesthetized until the time of blood collection from the portal vein. […]
(§3) Plasma was stored at -20° C. for insulin and glucagon determinations. Insulin levels were determined by the method of Herbert et al, J. […]. Endocr. […] Glucagon was determined by the method of Faloona and Unger, in Jaffe et al ed., Methods of Hormone Radioimmunoassay, Academic Press, New York, 1974, p. […] was determined by the glucose oxidase method, utilizing a Beckman Glucose Analyzer.
(§4) All experiments were carried on in a randomized block design. Following analysis of variance difference between treatments were determined by the multiple range tests of Dunnett and Duncan. Potency values were calculated from four or six point bioassays.

glucagon secretion = experiment: In vivo bioassay: inhibition of glucagon release in anesthetized rats (portal vein plasma); parameters: species or system Sprague-Dawley-CD rats; settings: in vivo rat, via external jugular vein; somatostatin = 100
Method: as §1, §2, §3, §4

somatostatin (AGCKNFFWKTFTSC; disulfide 3-14; ends not checked; UniProt P61278 103-116, looked up)
percent effectiveness for inhibiting secretion of Insulin, somatostatin taken as the base (insulin secretion): 100%
percent effectiveness for inhibiting secretion of Glucagon, somatostatin taken as the base (glucagon secretion): 100%
